Laboratory results published in article PMC8387043, “Host Poly(A) Polymerases PAPD5 and PAPD7 Provide Two Layers of Protection That Ensure the Integrity and Stability of Hepatitis B Virus RNA” (Journal of Virology, 2021).
Like-named read-outs stand apart in the source and are kept apart here.

Assays:
HBV [1] = test: Antiviral assay in HepG2.2.15 cells (HBsAg/HBeAg CLIA, secreted HBV DNA qPCR); assay type: cell-based, hepatitis B virus; details: Hepatitis B virus
HBV [2] = test: Antiviral assay in HBV-infected primary human hepatocytes (PHH); assay type: cell-based; details: Hepatitis B virus, Hepatocyte
HSV-1/HSV-2 = test: Antiviral selectivity panel, CPE in Vero cells; assay type: cell-based, herpes simplex virus
Method: (§1) HepG2.2.15 (30,000 cells/well) were plated in 96-well collagen-treated plates and incubated at 37°C. Compounds were half-log serially diluted and added in duplicate to 96-well microtiter plates. The plates were incubated for a total duration of 6 days, after which the culture medium was removed for the HBsAg and HBeAg CLIA assays (AutoBio Diagnostics Co., China) performed according to the manufacturer’s instructions. Secreted HBV DNA was extracted (Realtime Ready cell lysis kit; Roche, Mannheim, Germany) and quantified in a qPCR assay (LightCycler 480 SYBR green I master mix; Roche) with the 5′-[…]-3′ (sense) and 5′-[…]-3′ (antisense) primers using the PCR conditions of denaturing at 95°C for 5 min followed by 40 cycles of amplification at 95°C for 15 s and 60°C for 30 s. Antiviral selectivity studies against a panel of different DNA and RNA viruses were performed at ImQuest BioSicences (Frederick, MD, USA). Briefly, test compounds were evaluated using 6 doses, including the highest concentration of 30 μM and five serial half-logarithmic dilutions in triplicate for the antiviral assays.

DENV2 = test: Antiviral selectivity panel, CPE in BHK21 cells; assay type: cell-based, Dengue virus 2; details: Dengue virus, DENV2, BHK-21
Method: as §1

WNV = test: Antiviral selectivity panel, CPE in Vero76 cells; assay type: cell-based; details: West Nile virus, Vero 76
Method: as §1

Human rhinovirus = test: Antiviral selectivity panel, CPE in H1-HeLa cells; assay type: cell-based; details: Human rhinovirus sp.
Influenza = test: organism not typed; assay type: cell-based; details: MDBK, CPE
in vitro = assay type: cell-based; details: human
Excerpt: (§2) TABLE 3 Cytotoxicity of AB-452 against cells derived from various tissues | column: AB-452 CC50 (μM)

Cytotoxicity = assay type: cell-based
Excerpt: as §2

[3] = Cytotoxicity (summary statement); assay type: cell-based; details: several cell lines from different tissue origins; 30 μM highest concentration tested
HBsAg = HBsAg inhibition in adenovirus-HBsAg-transduced HepG2-NTCP WT and KO clones; assay type: cell-based, hepatitis B virus; details: for EC50: Hepatitis B virus
HBV [4] = test: Antiviral activity in HBV-infected HepG2-NTCP WT and KO clones; assay type: cell-based, hepatitis B virus; details: for EC50: Hepatitis B virus, read-out: HBV infection EC50
HBV RNA poly(A) tails [5] = test: HBV sRNA poly(A) tail NGS in HepG2-NTCP WT and KO clones
HBV RNA poly(A) tails [6] = details: Huh-7, 100 nM

In the case of `COCCCOc1cc2c(nc1OC)-c1cc(=O)c(C(=O)O)cn1[C@H](C(C)C)C2` [AB-452], the EC50 (HBV [1]; HepG2-2.2.15, Table 2, read-out: EC50, HBV (HBsAg)) is reported as 1.2 nM, the EC50 (HBV [1]; HepG2.2.15 cells, read-out: HBV DNA EC50) is reported as 0.28 ± 0.01 nM and the EC50 (HBV [1]; HepG2.2.15 cells, read-out: HBeAg EC50) is reported as 2.8 ± 2.1 nM. For the same molecule, the EC50 (HBV [1]; HepG2.2.15 cells, read-out: HBsAg EC50) was 1.4 ± 0.2 nM, the EC50 (HBV [2]; read-out: HBV DNA EC50) was 4.2 ± 3.8 nM and the EC50 (HBV [2]; read-out: HBeAg EC50) was 3.7 ± 1.3 nM. For the same molecule, the EC50 (HBV [2]; read-out: HBsAg EC50) was 3 ± 2.1 nM, the EC50 (HSV-1/HSV-2) was greater than 30000 nM and the EC50 (DENV2) was greater than 30000 nM. The EC50 (WNV) was greater than 30000 nM, the EC50 (Human rhinovirus) was greater than 30000 nM and the EC50 (Influenza) was greater than 30000 nM. For the same molecule, the CC50 (in vitro) was greater than 30000 nM, the CC50 (Cytotoxicity; African green monkey, Vero cells (kidney)) was greater than 30000 nM and the CC50 (Cytotoxicity; HEp2, human epithelial cells) was greater than 30000 nM. For the same molecule, the CC50 (Cytotoxicity; HeLa, human cervical cancer cells) was greater than 30000 nM, the CC50 (Cytotoxicity; cattle (bovine), MDBK cells (kidney)) was greater than 30000 nM and the CC50 (Cytotoxicity; hamster, BHK21 cells (kidney)) was greater than 30000 nM. The CC50 (Cytotoxicity; human, CEM-SS cells (T lymphoblast)) was greater than 30000 nM, the CC50 (Cytotoxicity; human, MRC5 cells (lung fibroblasts)) was greater than 30000 nM and the CC50 [3] was greater than 30000 nM. For the same molecule, the EC50 (HBsAg; T222, read-out: Adeno infection EC50, P7_KO (T2-22), HBsAg) was 7.1 ± 1.3 nM, the EC50 (HBsAg; read-out: Adeno infection EC50, P5_KO (T3-4), HBsAg) was 71.6 ± 31.2 nM and the EC50 (HBsAg; read-out: Adeno infection EC50, P5_KO (T3-15), HBsAg) was 56 ± 34 nM. The EC50 (HBsAg; read-out: Adeno infection EC50, P7_KO (T2-8), HBsAg) was 10 ± 1 nM, the EC50 (HBsAg; read-out: Adeno infection EC50, WT (parent) HepG2-NTCP, HBsAg) was 9 ± 4.6 nM and the “Adeno infection FC vs WT” value (HBsAg; P5_KO (T3-4)) was 8.0. The “Adeno infection FC vs WT” value (HBsAg; P5_KO (T3-15)) was 6.3, the “Adeno infection FC vs WT” value (HBsAg; P7_KO (T2-8)) was 1.1 and the “Adeno infection FC vs WT” value (HBsAg; P7_KO (T2-22)) was 0.8. For the same molecule, the “Adeno infection FC vs WT” value (HBsAg; WT (parent)) was 1, the “inhibition in P5/7_DKO and Z14_KO cell lines” value (HBsAg; adenovirus-transduced and HBV-infected clones (Fig. 7D to G)) was “did not show further inhibition than the untreated controls” and the EC50 (HBV [4]; P5_KO (T3-4)) was 37.7 ± 8.3 nM. The EC50 (HBV [4]; P5_KO (T3-15)) was 39.3 ± 3.2 nM, the EC50 (HBV [4]; P7_KO (T2-8)) was 3.8 ± 1.5 nM and the EC50 (HBV [4]; T222, P7_KO (T2-22)) was 3.2 ± 1.9 nM. The EC50 (HBV [4]; WT (parent) HepG2-NTCP) was 2.7 ± 1.8 nM, the “HBV infection FC vs WT” value (HBV [4]; P5_KO (T3-4)) was 14.0 and the “HBV infection FC vs WT” value (HBV [4]; P5_KO (T3-15)) was 14.6. The “HBV infection FC vs WT” value (HBV [4]; P7_KO (T2-8)) was 1.4, the “HBV infection FC vs WT” value (HBV [4]; P7_KO (T2-22)) was 1.2 and the “HBV infection FC vs WT” value (HBV [4]; WT (parent)) was 1. The “poly(A) tail length after treatment” value (HBV RNA poly(A) tails [5]; WT and P7_KO cells, untreated >136 bp) was roughly 60 bp, the “guanylation frequency of sRNA after treatment” value (HBV RNA poly(A) tails [5]; WT and P7_KO cells, untreated ∼50%) was roughly 10% and the guanosine incorporation (HBV RNA poly(A) tails [5]; Z14_KO and PAPD5/7_DKO cells, with and without AB-452) was roughly 10%. For the same molecule, the “poly(A) tail length of H133_dSLα transcripts” value (HBV RNA poly(A) tails [6]; untreated 71) was 62 nucleotides, the “average poly(A) tail length of H133 transcripts” value (HBV RNA poly(A) tails [6]; untreated 124) was 64 nucleotides and the “overall guanylation frequency, H133” value (HBV RNA poly(A) tails [6]; untreated about 60%) was 24%.
